Data as given in the NIST ThermoML archive (doi:10.1007/s10765-016-2104-7).
± gives the expanded uncertainty stated by the source.

Conditions: Liquid, Vibrating wire viscometry

| viscosity (1373 K) [mPa·s] | viscosity (1423 K) [mPa·s] | viscosity (1473 K) [mPa·s] | viscosity (1523 K) [mPa·s] | viscosity (1573 K) [mPa·s] | viscosity (1623 K) [mPa·s] | viscosity (1673 K) [mPa·s] | viscosity (1273 K) [mPa·s] | viscosity (1323 K) [mPa·s] | SMILES | viscosity (873 K) [mPa·s] | viscosity (973 K) [mPa·s] | viscosity (1073 K) [mPa·s] |
| --- | --- | --- | --- | --- | --- | --- | --- | --- | --- | --- | --- | --- |
| 5.625 ± 0.65 | 5.47 ± 0.16 | 4.963 ± 0.36 | 4.764 ± 0.25 | 4.495 ± 0.32 | 4.276 ± 0.51 | 3.981 ± 0.57 |  |  | [Au] [gold] |  |  |  |
| 2.812 ± 0.65 | 2.649 ± 0.33 | 2.54 ± 0.22 | 2.498 ± 0.46 | 2.399 ± 0.35 | 2.332 ± 0.39 | 2.214 | 3.52 ± 0.74 | 2.904 ± 0.45 | [Ag] [silver] |  |  |  |
|  |  |  |  |  |  |  |  |  | [Sn] [tin] | 1.253 ± 0.2 | 1.142 ± 0.3 | 1.087 ± 0.047 |
